The source of these data is PubChem BioAssay (NCI).

Test in all cases: DTP human tumour cell line panel, 48 h
For assay [1], the system named is ACHN renal.
In assay [2] the test system is CCRF-CEM leukemia.
Assay [3] relates to HCT-116 colon.
The test system of assay [4] is HS 578T breast.
In assay [5] the test system is LOX IMVI melanoma.
The test system of assay [6] is M14 melanoma.
Assay [7] has as its system NCI/ADR-RES ovarian.
Assay [8] concerns SF-268 CNS.
The test system of assay [9] is SK-MEL-5 melanoma.
For assay [10], the system named is SK-OV-3 ovarian.
Assay [11] relates to T-47D breast.
Assay [12] has as its system UACC-257 melanoma.

Where “and” joins values, the source holds several entries; their conditions need not be identical. Equal values may be shown once.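 48-hour exposure; five concentrations; linearly interpolated endpoints. GI50 is the concentration that inhibits growth by half. TGI is the concentration that stops growth completely.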

As a reminder, the TGI is the concentration at which net growth stops. Lower therefore signals more potent growth arrest. `CN(C)CC1CCC/C(=C\c2ccc(OC(=O)/C=C/c3ccc(Cl)cc3)cc2)C1=O` (centres undefined): the total growth inhibition concentration (TGI) is 5.73 µM in assay [1]; 3.39 µM in assay [2]; 11 µM in [3]; 24.6 µM in assay [4]; 9.39 µM in assay [5]; 20 µM in assay [6]. Moreover, the TGI came to 23 µM in assay [7]; 12.4 µM in [8]; 9.46 µM in [9]; 50 µM in assay [10]; 4.64 µM in assay [11]; 32.6 µM in assay [12].
For the compound `NC(=S)N1N=C2c3ccccc3CCC[C@H]2[C@@H]1c1ccccc1`, the concentration for total growth inhibition (TGI) in [1] came out at 30.6 µM; in [2] it was 24.3 µM; in assay [3], 12.7 µM; in assay [4] it was 17.4 µM; in assay [5], 16.4 µM; in [6], 10.1 µM. Besides, the TGI amounted to 3 µM in assay [7]; 39.4 µM in assay [8]; 8.93 µM in assay [9]; 2.77 µM in [10]; 29.1 µM in assay [11]; 25.7 µM in assay [12].
For the compound `O=C(O)c1nn(-c2ccccc2)nc1-c1nn(-c2ccccc2)nc1C(=O)O`, the TGI in assay [1], in assay [2], in assay [3], in assay [4], in [5] and in [6] was over 100 µM in each case. Also, the TGI in assay [7], in assay [8], in assay [9], in assay [10], in [11] and in assay [12] was over 100 µM throughout.
`Cc1cc(O)c2c(c1)C(C1c3cccc(O)c3C(=O)c3c(O)cc(C)cc31)c1cccc(O)c1C2=O` (centres undefined): the TGI in assay [1] was 3.56 µM; in assay [2] it was 10.1 µM; in assay [3], 18.9 µM; in assay [4] it was 33.3 µM; in assay [5] it was 11.4 µM; in [6], 7.49 µM. The TGI turned out to be 9.2 µM in [7]; 14 µM in [8]; 0.557 µM in assay [9]; 1.69 µM in [10]; 2.98 µM in assay [11]; 1.25 µM in assay [12].
For the compound `COc1cccc(OC)c1NC(=O)C(=O)Nn1c(NNC(=O)c2ccncc2)nc2ccccc2c1=O`, the total growth inhibition concentration (TGI) in [1], in assay [2], in [3], in assay [4], in assay [5] and in assay [6] was over 100 µM each time. Also, the TGI in assay [7], in [8], in [9], in [10], in assay [11] and in [12] was over 100 µM in each case.
As to `Cc1cc(C)n(-c2nc(C)c(CCO)c(=O)[nH]2)n1`, the TGI in assay [1], in assay [2], in [3], in assay [4], in assay [5] and in assay [6] was over 100 µM in each case. Also, the total growth inhibition concentration (TGI) in assay [7], in assay [8], in [9], in [10], in assay [11] and in assay [12] was over 100 µM each time.
For the compound `C=C1CCOC2(C(O)C(C)(O)CO)NC(=O)C1(O)NC2=O` (centres undefined), the concentration for total growth inhibition (TGI) in [1], in [2], in [3], in assay [4], in assay [5] and in [6] was over 100 µM throughout. For the same compound, the TGI in assay [7], in [8], in assay [9], in assay [10], in assay [11] and in assay [12] was over 100 µM throughout.
For the compound `COc1cc(/C=C/C(=N\NC(N)=S)c2sc(NNC(C)=O)nc2C)ccc1O`, the TGI in assay [1], in assay [2], in assay [3], in [4], in assay [5] and in assay [6] was over 100 µM each time. Also, the TGI in assay [7], in [8], in assay [9], in [10], in [11] and in assay [12] was over 100 µM in each case.
`Fc1ccc(C(OCCN2CCC3CCC(C2)N3C/C=C/c2cccs2)c2ccc(F)cc2)cc1` (centres undefined): the TGI in [1] worked out at 24.1 µM; in assay [2] it was 26.7 µM; in assay [3], 16.3 µM; in assay [4] it was 28.4 µM; in [5] it was 18.9 µM; in [6] it was 14.8 µM. In addition, the TGI in assay [7] stood at 19.7 µM; in assay [8] it was 24.6 µM; in [9], 12.1 µM; in assay [10], 26.3 µM; in assay [11], 15.5 µM; in assay [12] it was 15.1 µM.
For `CC(NNC(=O)c1ccncc1)c1cccc(C(F)(F)F)c1` (centres undefined), the TGI in assay [1], in assay [2], in assay [3], in assay [4], in assay [5] and in [6] was over 100 µM throughout. In addition, the TGI in assay [7], in assay [8], in [9], in assay [10], in assay [11] and in assay [12] was over 100 µM each time.
For the compound `CCCCCCCCCCCCOC1C(COCCN2CCCCC2)OC2OC(C)(C)OC21` (centres undefined), the TGI in [1] amounted to 4.69 µM; in assay [2], 2.99 µM; in assay [3], 3.07 µM; in [4], 4.17 µM; in assay [5] it was 3.01 µM; in [6], 2.99 µM. Further, the concentration for total growth inhibition (TGI) in assay [7] was found to be 14.4 µM; in [8], 6.44 µM; in assay [9], 2.93 µM; in assay [10], 15.9 µM; in assay [11] it was 4.01 µM; in assay [12], 3.18 µM.
Regarding `CN(C)S(=O)(=O)c1nc(Cl)c2[nH]cnc2n1`, the concentration for total growth inhibition (TGI) in [1], in assay [2], in assay [3], in assay [4], in assay [5] and in [6] was over 100 µM throughout. Also, the TGI in assay [7], in assay [8], in assay [9], in assay [10], in [11] and in [12] was over 100 µM each time.
Regarding `O=S(=O)(/N=C(\NO)Nc1ccc(Cl)cc1)c1cc2ccccc2s1`, the TGI in assay [1] stood at 30.5 µM; in assay [2], 87.5 µM; in assay [3] it was 30.2 µM; in assay [4], 37.5 µM; in assay [5], 33.5 µM; in assay [6] it was 33.3 µM. Moreover, the total growth inhibition concentration (TGI) turned out to be 38.7 µM in assay [7]; 29.2 µM in assay [8]; 30.1 µM in [9]; 34.7 µM in assay [10]; 84.2 µM in [11]; 49.9 µM in assay [12].
With `COc1ccc(-c2oc3cc(O)c(OC)c(O)c3c(=O)c2O)cc1`, the concentration for total growth inhibition (TGI) in assay [1] is 10.7 µM; in assay [2] it was 14.8 µM; in assay [3], over 66.6 µM; in [4] it was over 92.7 µM; in assay [5], over 78.6 µM; in assay [6], over 100 µM. In addition, the total growth inhibition concentration (TGI) was 48.5 µM in assay [7]; over 77.1 µM in assay [8]; 34 µM in [9]; 42.8 µM in assay [10]; over 100 µM in assay [11]; over 100 µM in [12].
Consider `CSc1ncc2c(n1)-c1ccccc1OC2`, for which the TGI in assay [1], in assay [2], in [3], in assay [4], in [5] and in assay [6] was over 100 µM throughout. Besides, the TGI in assay [7] is over 100 µM; in [8], over 100 µM; in assay [9], over 100 µM; in assay [10] it was over 100 µM; in assay [11], 62.5 µM; in assay [12] it was over 100 µM.
As usually defined, the GI50 is the concentration at which growth is held to half of that of the control. For `COc1ccc([I+]c2ccc(OC)cc2)cc1`, the TGI in assay [1], in [2], in assay [3], in assay [4], in [5] and in assay [6] was over 100 µM each time. Also, the TGI is over 100 µM in assay [7]; over 100 µM in [8]; 20.7 µM and 6.76 µM in [9]; over 100 µM in assay [10]; over 100 µM in [11]; over 100 µM in assay [12]. Also, the GI50 in assay [2] was 4.98 µM; in [3], 2.83 µM; in assay [4], 18.8 µM; in [5], 6.05 µM; in assay [6], 13.4 µM; in assay [8] it was 12.6 µM. Besides, the GI50 in [9] is 1.8 µM; in [11] it was 13.5 µM.
As for `C=C(C)CCC1C=[N+]([O-])OC(C)(C)C1(C)C` (centres undefined), the TGI in assay [1], in assay [2], in assay [3], in assay [4], in [5] and in assay [6] was over 100 µM throughout. Also, the total growth inhibition concentration (TGI) in assay [7], in assay [8], in assay [9], in [10], in assay [11] and in [12] was over 100 µM throughout.
Turning to `CCOC(=O)c1cc(C)nc2c1c(=O)n(-c1ccccc1)c(=O)n2CCCCN1CCN(c2ncccn2)CC1`, the total growth inhibition concentration (TGI) in assay [1] is over 100 µM; in assay [2], 97.7 µM; in assay [3] it was over 100 µM; in assay [4], over 100 µM; in assay [5] it was over 100 µM; in [6], over 100 µM. Moreover, the concentration for total growth inhibition (TGI) in assay [7], in assay [8], in assay [9], in assay [10], in assay [11] and in [12] was over 100 µM throughout.
